We go through eleven molecules from ChEMBL document CHEMBL1131808, “Potent immunosuppressive C32-O-arylethyl ether derivatives of ascomycin with reduced toxicity” (Bioorg Med Chem Lett, 1999).

The structures appear in SMILES notation. Activity calls are given as the source filed them. No cut-off for these calls is given here.

Experiment [1] relates to Rattus norvegicus. The experiment can be described thus: The compound was tested for % reduction of nephrotoxicity in rat after intravenous administration at dose 10 mg/kg. It counts as functional.
Experiment [2] is described as follows: Ratio of hypothermia (ED50) by Murine (ED50) in vivo. It counts as functional.
Experiment [3] relates to Mus musculus. The experiment can be described thus: In vivo immunosuppression in murine models by splenic T-cell proliferation assay after peroral administration. The format is functional. To be noted: po.
Experiment [4] concerns the target Peptidyl-prolyl cis-trans isomerase FKBP1A (Homo sapiens, UniProt P62942). In words: Effective concentration against FK506 binding protein 12 using [3H]-dihydro FK-506.
The species entered for experiment [5] is Mus musculus. The experiment can be described thus: The compound was tested for its inhibitory activity against T-cell proliferation using murine splenic T-cells. The format is functional.
The subject of experiment [6] is Rattus norvegicus. The experiment can be described thus: Cytotoxicity was determined by hypothermia induction after intravenous administration in rat. It counts as functional.
The subject of experiment [7] is Mus musculus. In words: In vivo immunosuppression in murine models by splenic T-cell proliferation assay after intravenous administration. It counts as functional.
In experiment [8] the test system is Rattus norvegicus. The experiment can be described thus: The compound was tested for % reduction of nephrotoxicity in rat after intravenous administration at dose 5 mg/kg. The format is functional.
In experiment [9] the test system is Rattus norvegicus. In words: The compound was tested for % reduction of nephrotoxicity in rat after intravenous administration at dose 20 mg/kg; NE denotes no effect. The format is functional, organism-based. On the set-up: dose 20 mg/kg.
The subject of experiment [10] is Rattus norvegicus. In words: Tested for nephrotoxicity in Dawley rats and measured for plasma drug level after intravenous administration at dose 5 mg/kg. The format is functional.
Experiment [11] deals with Rattus norvegicus. In words: The compound was tested for % reduction of nephrotoxicity in rat after intravenous administration at dose 20 mg/kg. The format is functional.
For experiment [12], the system named is Rattus norvegicus. The experiment can be described thus: Tested for nephrotoxicity in Dawley rats and measured for blood urea nitrogen levels after intravenous administration at dose 40 mg/kg. It counts as functional.
Experiment [13] deals with Rattus norvegicus. The experiment can be described thus: Tested for nephrotoxicity in Dawley rats and measured for plasma drug level after intravenous administration at dose 20 mg/kg. The format is functional.
Experiment [14] relates to Rattus norvegicus. The experiment can be described thus: Tested for nephrotoxicity in Dawley rats and measured for blood urea nitrogen levels after intravenous administration at dose 10 mg/kg. The format is functional.
Experiment [15] concerns Rattus norvegicus. The experiment can be described thus: Tested for nephrotoxicity in Dawley rats and measured for blood urea nitrogen levels after intravenous administration at dose 5 mg/kg. The format is functional.
Experiment [16] deals with Rattus norvegicus. In words: Tested for nephrotoxicity in Dawley rats and measured for plasma drug level after intravenous administration at dose 10 mg/kg. The format is functional.
In experiment [17] the test system is Rattus norvegicus. The experiment can be described thus: Tested for nephrotoxicity in Dawley rats and measured for blood urea nitrogen levels after intravenous administration at dose 20 mg/kg. The format is functional.
Experiment [18] relates to Rattus norvegicus. In words: Tested for nephrotoxicity in Dawley rats and measured for plasma drug level after intravenous administration at dose 40 mg/kg. It counts as functional.
In experiment [19] the test system is Rattus norvegicus. The experiment can be described thus: Tested for nephrotoxicity in Dawley rats and measured for plasma drug level after intravenous administration at dose 2.5 mg/kg. It counts as functional.
In experiment [20] the test system is Rattus norvegicus. The experiment can be described thus: Tested for nephrotoxicity in Dawley rats and measured for blood urea nitrogen levels after intravenous administration at dose 2.5 mg/kg. The format is functional.
Experiment [21] has as its system Rattus norvegicus. In words: The compound was tested for % reduction of nephrotoxicity in rat after intravenous administration at dose 1.7 mg/kg. The format is functional.

Sequence of Peptidyl-prolyl cis-trans isomerase FKBP1A (P62942 whole entry): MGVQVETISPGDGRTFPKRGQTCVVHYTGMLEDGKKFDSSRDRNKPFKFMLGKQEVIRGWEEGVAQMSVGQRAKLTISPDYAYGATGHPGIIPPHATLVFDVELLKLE

One may read the ED50 as the midpoint of the dose-response relation. High values mean a need for a large dose, low ones an effect at a small dose. By EC50 is commonly meant the concentration needed to bring the measured effect to its halfway point. A lower EC50 goes with a more potent agent. Broadly, the IC50 is the midpoint of a concentration-inhibition curve. Low readings indicate higher potency, high ones lower potency. Consider `CC[C@@H]1/C=C(\C)C[C@H](C)C[C@H](OC)[C@H]2O[C@@](O)(C(=O)C(=O)N3CCCC[C@H]3C(=O)O[C@H](/C(C)=C/C3CC[C@@H](OC[C@@H](O)c4ccc(F)c(F)c4)[C@H](OC)C3)[C@H](C)[C@H](O)CC1=O)[C@H](C)C[C@@H]2OC` (stereo partly specified), for which the Reduction in experiment [1] is reported as 44%. Besides, the Therapeutic index in experiment [2] stood at 52. The ED50 in experiment [3] was found to be 2.8 mg/kg; in [6], 10 mg/kg; in experiment [7] it was 0.19 mg/kg. For the same molecule, the EC50 in [4] came to 7.5 nM. Also, in experiment [5], the midpoint of inhibition, the IC50, lay at 0.14 nM.

`CC[C@@H]1/C=C(\C)C[C@H](C)C[C@H](OC)[C@H]2O[C@@](O)(C(=O)C(=O)N3CCCC[C@H]3C(=O)O[C@H](/C(C)=C/C3CC[C@@H](OC[C@H](O)c4cccc(C(F)(F)F)c4)[C@H](OC)C3)[C@H](C)[C@H](O)CC1=O)[C@H](C)C[C@@H]2OC` (stereo partly specified) returned a Reduction in experiment [8] of 51%. Besides, in [2], the Therapeutic index worked out at 47. Further, the ED50 was 5 mg/kg in [3], 13.7 mg/kg in [6] and 0.29 mg/kg in experiment [7]. Moreover, the EC50 in experiment [4] amounted to 45 nM. The same molecule showed an IC50 in experiment [5] of 0.38 nM.

As to `CC[C@@H]1/C=C(\C)C[C@H](C)C[C@H](OC)[C@H]2O[C@@](O)(C(=O)C(=O)N3CCCC[C@H]3C(=O)O[C@H](/C(C)=C/C3CC[C@@H](OC[C@@H](O)c4cc(C)cc(C)c4)[C@H](OC)C3)[C@H](C)[C@H](O)CC1=O)[C@H](C)C[C@@H]2OC` (stereo partly specified), the Therapeutic index in experiment [2] was 23. In addition, the ED50 in experiment [3] is 4.5 mg/kg; in experiment [6] it was 10.3 mg/kg; in experiment [7], 0.45 mg/kg. For the same molecule, the 50% effective concentration (EC50) in [4] turned out to be 7.5 nM. The Reduction entry in experiment [9] was “inactive”. For the same molecule, in [5], half-maximal inhibition (IC50) was put at 0.23 nM.

For the molecule `CC[C@@H]1/C=C(\C)C[C@H](C)C[C@H](OC)[C@H]2O[C@@](O)(C(=O)C(=O)N3CCCC[C@H]3C(=O)O[C@H](/C(C)=C/C3CC[C@@H](OC[C@@H](O)c4ccc5ccccc5c4)[C@H](OC)C3)[C@H](C)[C@H](O)CC1=O)[C@H](C)C[C@@H]2OC` (stereo partly specified), the Nephrotoxicity in experiment [10] was 239 ng/mL; in experiment [12], 39.3 mg/dL; in experiment [13] it was 1897 ng/mL; in [14], 17.7 mg/dL; in experiment [15], 16.3 mg/dL; in experiment [16], 478 ng/mL. In addition, the Nephrotoxicity in [17] was 24.7 mg/dL; in experiment [18], 3120 ng/mL. Besides, the Reduction in [11] came to 41%. Also, in experiment [2], the Therapeutic index is on record as 57. The values for the ED50 in experiment [3], in experiment [6] and in experiment [7] were 3.7 mg/kg, 21.6 mg/kg and 0.38 mg/kg, respectively. In experiment [4], this molecule had an EC50 of 21.1 nM. The same molecule displayed an IC50 in experiment [5] of 0.33 nM.

For the molecule `CC[C@@H]1/C=C(\C)C[C@H](C)C[C@H](OC)[C@H]2O[C@@](O)(C(=O)C(=O)N3CCCC[C@H]3C(=O)O[C@H](/C(C)=C/C3CC[C@@H](OC[C@H](O)c4cc5ccccc5s4)[C@H](OC)C3)[C@H](C)[C@H](O)CC1=O)[C@H](C)C[C@@H]2OC` (stereo partly specified), the ED50 in experiment [3] amounted to 5.6 mg/kg; in experiment [7], 0.53 mg/kg. In [4], this molecule gave an EC50 of 12 nM. The IC50 in [5] is 0.47 nM.

With `CC[C@@H]1/C=C(\C)C[C@H](C)C[C@H](OC)[C@H]2O[C@@](O)(C(=O)C(=O)N3CCCC[C@H]3C(=O)O[C@H](/C(C)=C/C3CC[C@@H](OC[C@@H](O)c4cccc(C(F)(F)F)c4)[C@H](OC)C3)[C@H](C)[C@H](O)CC1=O)[C@H](C)C[C@@H]2OC` (stereo partly specified), in [2], the Therapeutic index is given as 41. Besides, the ED50 in experiment [3] was found to be 3.7 mg/kg; in [6], 12.8 mg/kg; in experiment [7] it was 0.31 mg/kg. Moreover, in experiment [4], a half-maximal response (EC50) required 45 nM. In addition, in [9], the Reduction result was “inactive”. Moreover, the IC50 in experiment [5] stood at 0.38 nM.

Consider `CC[C@@H]1/C=C(\C)C[C@H](C)C[C@H](OC)[C@H]2O[C@@](O)(C(=O)C(=O)N3CCCC[C@H]3C(=O)O[C@H](/C(C)=C/C3CC[C@@H](OC[C@@H](O)c4cc5ccccc5s4)[C@H](OC)C3)[C@H](C)[C@H](O)CC1=O)[C@H](C)C[C@@H]2OC` (stereo partly specified), for which, in [8], the Reduction was 32%. Also, in [2], the Therapeutic index worked out at 20. Also, the ED50 in experiment [3] is 6.4 mg/kg; in experiment [6] it was 14.8 mg/kg; in experiment [7], 0.75 mg/kg. Also, in experiment [4], the EC50 is 11.2 nM. This molecule had an IC50 in experiment [5] of 0.39 nM.

In turn, `CC[C@@H]1/C=C(\C)C[C@H](C)C[C@H](OC)[C@H]2O[C@@](O)(C(=O)C(=O)N3CCCC[C@H]3C(=O)O[C@H](/C(C)=C/C3CC[C@@H](OC[C@H](O)c4cc(C)cc(C)c4)[C@H](OC)C3)[C@H](C)[C@H](O)CC1=O)[C@H](C)C[C@@H]2OC` (stereo partly specified) had a Reduction in experiment [1] of 48%. Besides, the Therapeutic index in [2] was determined as 15. Further, the results for the ED50 in [3], in [6] and in [7] were 4.8 mg/kg, 7.25 mg/kg and 0.49 mg/kg, respectively. Further, the EC50 in [4] came out at 9 nM. 0.34 nM corresponded to half-maximal inhibition in experiment [5] (IC50).

For `C=CC[C@@H]1/C=C(\C)C[C@H](C)C[C@H](OC)[C@H]2O[C@@](O)(C(=O)C(=O)N3CCCC[C@H]3C(=O)O[C@H](/C(C)=C/[C@@H]3CC[C@@H](O)[C@H](OC)C3)[C@H](C)C(O)CC1=O)[C@H](C)C[C@@H]2OC` (single isomer, unassigned) [TACROLIMUS ANHYDROUS], the Nephrotoxicity was 45 ng/mL in [10]; 26 mg/dL in experiment [14]; 21 mg/dL in experiment [15]; 13 ng/mL in experiment [19]; 611 ng/mL in experiment [16]; 18.1 mg/dL in experiment [20]. For the same molecule, the ED50 in experiment [3] stood at 2.6 mg/kg; in [6], 3.7 mg/kg; in experiment [7], 0.22 mg/kg. Further, in experiment [5], the IC50 is 0.2 nM. Besides, the Reduction in experiment [21] is given as 45%.

In turn, `CC[C@@H]1/C=C(\C)C[C@H](C)C[C@H](OC)[C@H]2O[C@@](O)(C(=O)C(=O)N3CCCC[C@H]3C(=O)O[C@H](/C(C)=C/C3CC[C@@H](OC[C@H](O)c4ccc5ccccc5c4)[C@H](OC)C3)[C@H](C)[C@H](O)CC1=O)[C@H](C)C[C@@H]2OC` (stereo partly specified) came in with a Reduction in [11] of 40%. Besides, the Therapeutic index in experiment [2] amounted to 37. Moreover, the ED50 in [3] was determined as 3.4 mg/kg; in [6], 14.2 mg/kg; in experiment [7], 0.38 mg/kg. In [4], this molecule yielded an EC50 of 18 nM. Half-maximal inhibition in experiment [5] (IC50) required 0.34 nM.

`CC[C@@H]1/C=C(\C)C[C@H](C)C[C@H](OC)[C@H]2O[C@@](O)(C(=O)C(=O)N3CCCC[C@H]3C(=O)O[C@H](/C(C)=C/C3CC[C@@H](OC[C@H](O)c4ccc(F)c(F)c4)[C@H](OC)C3)[C@H](C)[C@H](O)CC1=O)[C@H](C)C[C@@H]2OC` (stereo partly specified) returned a Reduction in [8] of 54%. In addition, the Therapeutic index in experiment [2] is listed as 72. In addition, the ED50 stood at 3.9 mg/kg in [3], 13.7 mg/kg in [6] and 0.19 mg/kg in experiment [7]. This molecule also yielded an EC50 in experiment [4] of 13.6 nM. In experiment [5], this molecule displayed an IC50 of 0.11 nM.
